Experimental data reported in the supplement of paper PMC10307832.

Legend:
Assay in all cases: relative viability (nuclei count vs DMSO), 5 days (fraction); higher = more cells survive
Dovitinib + Olaparib = compound: CN1CCN(c2ccc3nc(-c4c(N)c5c(F)cccc5[nH]c4=O)[nH]c3c2)CC1 [Dovitinib] + O=C(c1cc(Cc2n[nH]c(=O)c3ccccc23)ccc1F)N1CCN(C(=O)C2CC2)CC1 [Olaparib] (partner 8 µM)
Procedure, shortened: (§1)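 Lung cancer cell lines, seeded in 1536-well plates, were treated the following day by pin tool with a single drug or with five library-drug doses (not always all listed) in √10 steps on top of a fixed anchor-drug dose. Cells were fixed and nuclei stained in one step after 5 days, and nuclei were counted. Relative viability is the nuclei count for treated wells divided by that for vehicle wells, reported as medians of duplicate plates.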

Dovitinib + Palbociclib = compound: CN1CCN(c2ccc3nc(-c4c(N)c5c(F)cccc5[nH]c4=O)[nH]c3c2)CC1 [Dovitinib] + CC(=O)c1c(C)c2cnc(Nc3ccc(N4CCNCC4)cn3)nc2n(C2CCCC2)c1=O [Palbociclib] (partner 0.5 µM)
Procedure, shortened: as §1

Dovitinib + Alpelisib = compound: CN1CCN(c2ccc3nc(-c4c(N)c5c(F)cccc5[nH]c4=O)[nH]c3c2)CC1 [Dovitinib] + Cc1nc(NC(=O)N2CCC[C@H]2C(N)=O)sc1-c1ccnc(C(C)(C)C(F)(F)F)c1 [Alpelisib] (partner 2 µM)
Procedure, shortened: as §1

Dovitinib + Pemetrexed = compound: CN1CCN(c2ccc3nc(-c4c(N)c5c(F)cccc5[nH]c4=O)[nH]c3c2)CC1 [Dovitinib] + Nc1nc2[nH]cc(CCc3ccc(C(=O)N[C@@H](CCC(=O)O)C(=O)O)cc3)c2c(=O)[nH]1 [Pemetrexed] (partner 0.2 µM)
Procedure, shortened: as §1

Cell Line | relative viability (Dovitinib + Olaparib; first compound 0.02 µM) | relative viability (Dovitinib + Olaparib; first compound 0.06325 µM) | relative viability (Dovitinib + Olaparib; first compound 0.2 µM) | relative viability (Dovitinib + Olaparib; first compound 0.6325 µM) | relative viability (Dovitinib + Olaparib; first compound 2 µM) | relative viability (Dovitinib + Palbociclib; first compound 0.02 µM) | relative viability (Dovitinib + Palbociclib; first compound 0.06325 µM) | relative viability (Dovitinib + Palbociclib; first compound 0.2 µM) | relative viability (Dovitinib + Palbociclib; first compound 0.6325 µM) | relative viability (Dovitinib + Palbociclib; first compound 2 µM) | relative viability (Dovitinib + Alpelisib; first compound 0.02 µM) | relative viability (Dovitinib + Alpelisib; first compound 0.06325 µM) | relative viability (Dovitinib + Alpelisib; first compound 0.6325 µM) | relative viability (Dovitinib + Alpelisib; first compound 2 µM) | relative viability (Dovitinib + Pemetrexed; first compound 0.02 µM) | relative viability (Dovitinib + Pemetrexed; first compound 0.06325 µM) | relative viability (Dovitinib + Pemetrexed; first compound 0.2 µM) | relative viability (Dovitinib + Pemetrexed; first compound 0.6325 µM) | relative viability (Dovitinib + Pemetrexed; first compound 2 µM) | relative viability (Dovitinib + Alpelisib; first compound 0.2 µM)
201T | 0.803 | 0.842 | 0.809 | 0.865 | 0.815 | 0.366 | 0.379 | 0.341 | 0.371 | 0.367 | 0.979 | 0.975 | 1.01 | 0.996 | 0.387 | 0.392 | 0.366 | 0.34 | 0.298 | –
A549 | 0.301 | 0.329 | 0.353 | 0.458 | 0.353 | – | – | – | – | – | 0.802 | 0.757 | 0.801 | 0.671 | – | – | – | – | – | 0.701
A-427 | 0.711 | 0.641 | 0.773 | 0.797 | 0.822 | 0.502 | 0.517 | 0.553 | 0.521 | 0.587 | 0.979 | 1.03 | 0.938 | 1.03 | 0.907 | 0.988 | 1.04 | 0.967 | 1.06 | 1.07
ABC-1 | 0.628 | 0.664 | 0.871 | 1.09 | 0.944 | 0.513 | 0.797 | 0.833 | 0.627 | 0.725 | 0.994 | 0.947 | 0.564 | 0.823 | – | – | – | – | – | 0.967
BEN | 1.11 | 1.09 | 1.08 | 1.1 | 1.05 | 0.477 | 0.46 | 0.456 | 0.478 | 0.492 | 0.981 | 0.828 | 0.954 | 0.936 | 0.713 | 0.812 | 0.633 | 0.836 | 0.697 | 0.988
CAL-12T | 0.69 | 0.434 | 0.733 | 0.61 | 0.713 | 0.563 | 0.55 | 0.406 | 0.526 | 0.589 | 1.16 | 1.06 | 1.37 | 1.15 | 1.11 | 1.16 | 1.21 | 1.24 | 1.17 | 1.18
COR-L23 | 0.296 | 0.383 | 0.379 | 0.353 | 0.342 | 0.269 | 0.261 | 0.306 | 0.372 | 0.324 | 0.768 | 0.743 | 0.773 | 0.726 | 0.194 | 0.211 | 0.2 | 0.208 | 0.212 | 0.69
COR-L 105 | 0.691 | 0.712 | 0.72 | 0.765 | 0.638 | 0.434 | 0.421 | 0.46 | 0.419 | 0.427 | 0.938 | 0.986 | 0.84 | 0.958 | 1.23 | 1.09 | 1.05 | 1 | 0.92 | 1.01
Calu-6 | 0.572 | 0.578 | 0.553 | 0.571 | 0.809 | – | – | – | – | – | 0.943 | 0.97 | 0.925 | 1.01 | – | – | – | – | – | 0.872
ChaGo-K-1 | 0.398 | 0.461 | 0.397 | 0.395 | 0.366 | 0.927 | 0.936 | 0.866 | 0.912 | 0.881 | – | – | – | – | 0.263 | 0.25 | 0.251 | 0.258 | 0.26 | –
